# Results reported in ChEMBL document CHEMBL3091275, “Oxime-based inhibitors of glucose transporter 1 displaying antiproliferative effects in cancer cells” (Bioorg Med Chem Lett, 2013).
# Active and inactive are the calls of the source. The calls are words filed in the database; no cut-off is given here.
# Tests used:
# [1] = target: T1, Solute carrier family 2, facilitated glucose transporter member 1 (Homo sapiens) (UniProt P11166); assay: Inhibition of GLUT1 in human H1299 cells assessed as inhibition of 2-deoxy-D-[3H]-glucose uptake at 30 uM incubated for 15 mins prior to 2-deoxy-D-[3H]-glucose addition measured after 30 mins by liquid scintillation counting analysis; type: cell-based
# T1 sequence (whole entry): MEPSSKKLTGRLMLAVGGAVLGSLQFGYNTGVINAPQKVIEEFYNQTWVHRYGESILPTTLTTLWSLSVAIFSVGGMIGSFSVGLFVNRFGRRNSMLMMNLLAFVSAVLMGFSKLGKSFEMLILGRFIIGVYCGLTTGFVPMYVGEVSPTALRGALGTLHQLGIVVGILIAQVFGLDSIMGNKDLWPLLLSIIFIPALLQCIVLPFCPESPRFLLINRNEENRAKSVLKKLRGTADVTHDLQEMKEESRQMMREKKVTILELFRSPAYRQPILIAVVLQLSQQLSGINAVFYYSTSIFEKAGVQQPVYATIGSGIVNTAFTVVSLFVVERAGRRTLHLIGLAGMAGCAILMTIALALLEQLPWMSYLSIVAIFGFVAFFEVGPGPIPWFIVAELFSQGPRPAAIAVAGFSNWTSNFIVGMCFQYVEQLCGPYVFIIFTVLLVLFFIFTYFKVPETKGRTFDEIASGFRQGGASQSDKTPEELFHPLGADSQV
# Estrogen receptor beta = Estrogen receptor beta (Homo sapiens, UniProt Q92731); assay: Displacement of [3H]E2 from full-length human ERbeta after 18 to 24 hrs by radiometric assay
# Chain of Estrogen receptor beta (Q92731 whole entry): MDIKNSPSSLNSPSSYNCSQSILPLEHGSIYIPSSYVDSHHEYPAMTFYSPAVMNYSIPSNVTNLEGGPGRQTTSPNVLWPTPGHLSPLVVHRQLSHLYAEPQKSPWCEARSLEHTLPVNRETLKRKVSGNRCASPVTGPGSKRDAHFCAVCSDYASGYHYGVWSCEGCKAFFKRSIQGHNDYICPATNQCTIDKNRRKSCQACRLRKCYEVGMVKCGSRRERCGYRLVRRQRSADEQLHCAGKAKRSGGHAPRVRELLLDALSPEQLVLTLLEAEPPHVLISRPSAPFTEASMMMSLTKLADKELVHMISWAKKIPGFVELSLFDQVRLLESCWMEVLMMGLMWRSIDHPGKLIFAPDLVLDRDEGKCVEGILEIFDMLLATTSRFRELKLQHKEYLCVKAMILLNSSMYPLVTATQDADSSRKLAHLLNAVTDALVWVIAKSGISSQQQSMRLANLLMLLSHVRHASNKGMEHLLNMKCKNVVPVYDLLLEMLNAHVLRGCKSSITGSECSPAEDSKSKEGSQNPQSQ
# NCI-H1299 = assay: Cytotoxicity against human H1299 cells assessed as growth inhibition at 30 uM after 48 hrs by MTT assay; type: functional, cell-based
# [2] = target: T2, Solute carrier family 2, facilitated glucose transporter member 1 (Homo sapiens, UniProt P11166); assay: Inhibition of GLUT1 in human H1299 cells assessed as inhibition of 2-deoxy-D-[3H]-glucose uptake incubated for 15 mins prior to 2-deoxy-D-[3H]-glucose addition measured after 30 mins by liquid scintillation counting analysis; type: cell-based
# T2 sequence (P11166 whole entry): T1 sequence (whole entry)
# [3] = Cytotoxicity against human H1299 cells assessed as growth inhibition after 48 hrs by MTT assay; type: functional, cell-based; settings: NCI-H1299, 48 h
# Estrogen receptor = target: T3, Estrogen receptor (Homo sapiens, UniProt P03372); assay: Binding affinity to human estrogen receptor assessed as decrease in estradiol-dependent beta-galactosidase activity
# T3 sequence (P03372 whole entry): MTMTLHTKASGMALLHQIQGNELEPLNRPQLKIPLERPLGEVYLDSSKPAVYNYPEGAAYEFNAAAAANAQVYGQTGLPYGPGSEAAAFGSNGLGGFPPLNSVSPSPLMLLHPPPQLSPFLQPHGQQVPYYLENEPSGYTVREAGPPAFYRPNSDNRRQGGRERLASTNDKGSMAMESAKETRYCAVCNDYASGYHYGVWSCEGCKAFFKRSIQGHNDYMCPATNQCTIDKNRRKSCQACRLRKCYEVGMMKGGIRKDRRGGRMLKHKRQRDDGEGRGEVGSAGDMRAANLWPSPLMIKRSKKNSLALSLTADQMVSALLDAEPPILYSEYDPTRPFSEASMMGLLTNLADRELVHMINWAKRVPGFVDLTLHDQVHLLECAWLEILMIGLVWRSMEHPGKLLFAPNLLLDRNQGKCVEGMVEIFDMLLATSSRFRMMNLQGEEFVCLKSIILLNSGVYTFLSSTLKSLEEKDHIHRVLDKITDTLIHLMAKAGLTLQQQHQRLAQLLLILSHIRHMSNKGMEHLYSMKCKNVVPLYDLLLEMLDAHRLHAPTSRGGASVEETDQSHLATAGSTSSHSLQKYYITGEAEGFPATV
Compound,inhibition [1],IC50 [2],IC50 [3],further results
O/N=C/c1cc(-c2ccc(O)c(F)c2)ccc1O,Active,,,Kd (Estrogen receptor beta): 0.051 µM; growth inhibition (GI) (NCI-H1299): Active
C/C(=N\O)c1ccc(-c2ccc(O)cc2)c(Cl)c1O,,10.6 µM,34.8 µM,
C/C(=N\O)c1ccc(-c2ccc(O)c(F)c2)c(Cl)c1O,Active,,,
O/N=C/c1cc(-c2ccc(O)cc2)ccc1O,Active,,,
COc1ccc(-c2ccc(O)c(/C=N/O)c2)cc1F,,8.5 µM,14.1 µM,
O/N=C/c1c(O)ccc(-c2ccc(O)c(F)c2)c1Cl,Active,,,
Cc1c(-c2ccc(O)cc2)ccc(/C=N/O)c1O,Active,,,
COc1ccc(-c2ccc(/C(C)=N/O)c(O)c2Cl)cc1F,,15.5 µM,39.6 µM,
O=C(Oc1cccc(F)c1OC(=O)c1cccc(O)c1)c1cccc(O)c1,,10.9 µM,20.4 µM,
COc1ccc(-c2ccc(O)c(/C=N/O)c2)cc1,,23.4 µM,20.4 µM,
O=C(CCc1ccc(O)cc1)c1c(O)cc(O)cc1O [PHLORETIN],,21.4 µM,54 µM,IC50 (Estrogen receptor): 0.3 µM
N#Cc1c(-c2ccc(O)cc2)ccc(/C=N/O)c1O,Active,,,
O/N=C/c1c(O)ccc(-c2ccc(O)cc2)c1Cl,Active,,,
COc1ccc(-c2ccc(/C=N/O)c(O)c2C)cc1,Active,,,
O/N=C/c1c(O)ccc(-c2ccc(O)cc2)c1-c1ccc(O)cc1,Active,,,
